Data taken from patent publication US11214803B2, “Modulators of YAP1 expression” (Ionis Pharmaceuticals, Inc., priority 2019, dated 2022).
Strand notation (5' to 3'): a small letter for the sugar, then the base; units joined by * are phosphorothioate-linked, units joined directly phosphodiester-linked; [ ] holds rarer units or linkages, { } end groups; capitals alone tell only the bases. k = constrained ethyl (cEt); [5mC] = 5-methylcytosine; d = 2'-deoxy (DNA)

tested on: Yap1 mRNA; test: Antisense inhibition of human Yap1 in A-431 cells by cEt gapmers, single dose (Example 3, RTS36584); format: cell-based; conditions: Table 9; A-431 cells, 5,000 cells per well, free uptake, 2,000 nM, approximately 48 hours; RTS36584; normalized to RIBOGREEN; Yap1 mRNA relative to untreated control cells
Outline: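 Human epidermoid A-431 cells take up gapmer (2,000 nM, free uptake, ~48 h); Yap1 transcript is then assayed by qRT-PCR with RiboGreen normalization and reported relative to untreated cells. Gapmers carry cEt-modified wings, phosphorothioate linkages and 5-methylcytosine throughout.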

Compared with “958561 (kA*k[5mC]*kA*d[5mC]*dA*dG*dA*dG*dG*dT*dG*d[5mC]*dT*kA*kG*k[5mC]; antisense) [Compound 958561]”, “958566 (kA*k[5mC]*k[5mC]*dT*dA*dT*dG*dA*dA*d[5mC]*dT*dA*dT*kT*kA*kT; antisense) [Compound 958566]” is lower in “YAP1 (% UTC)” value: 48 % UTC for the first, 18 % UTC for the second.

First: 958571 (k[5mC]*kA*kA*d[5mC]*dA*dA*d[5mC]*dA*dT*dG*d[5mC]*dT*dA*kT*kG*kT; antisense) [Compound 958571]
Second: 958576 (kG*kT*kG*dG*d[5mC]*dT*dA*d[5mC]*dT*dG*dG*d[5mC]*dA*kA*kA*kT; antisense) [Compound 958576]
The “YAP1 (% UTC)” value of the first is lower: 43 % UTC for the first, 53 % UTC for the second.

First: 958581 (k[5mC]*kT*kG*d[5mC]*dT*dG*dA*dT*dA*dT*dA*dT*dA*kA*kG*kA; antisense) [Compound 958581]
Second: 958586 (kG*kG*k[5mC]*dA*dG*d[5mC]*dA*d[5mC]*dG*dG*dT*dG*dT*kA*kA*kG; antisense) [Compound 958586]
The “YAP1 (% UTC)” value of the first is lower: 26 % UTC for the first, 78 % UTC for the second.

First: 958591 (kT*k[5mC]*kA*d[5mC]*dA*dG*dT*dA*d[5mC]*dT*dG*d[5mC]*dT*kA*k[5mC]*kA; antisense) [Compound 958591]
Second: 958596 (kA*kG*k[5mC]*dA*dG*dT*dT*dA*dA*dG*d[5mC]*dA*d[5mC]*kT*kT*kT; antisense) [Compound 958596]
The “YAP1 (% UTC)” value of the first is higher: 38 % UTC for the first, 3 % UTC for the second.

Compared with “958601 (k[5mC]*k[5mC]*kT*dT*dT*dA*dA*dA*dG*dG*d[5mC]*dA*d[5mC]*kT*kA*k[5mC]; antisense) [Compound 958601]”, “958606 (antisense kT*k[5mC]*k[5mC]*dA*d[5mC]*d[5mC]*dT*dG*dA*dG*d[5mC]*dA*d[5mC]*kT*k[5mC]*kA) [Compound 958606]” is higher in “YAP1 (% UTC)” value: 17 % UTC for the first, 31 % UTC for the second.

same assay, conditions: Table 10; A-431 cells, 5,000 cells per well, free uptake, 2,000 nM oligonucleotide, approx. 48 hours; primer probe set RTS36584; Yap1 mRNA normalized to RIBOGREEN, percent of untreated control

Going from “958562 (k[5mC]*kA*kT*dT*dG*dA*dA*dA*dG*dA*d[5mC]*d[5mC]*d[5mC]*kT*kT*kA; antisense) [Compound 958562]” to “958567 (kT*k[5mC]*kA*dA*d[5mC]*d[5mC]*dT*dA*dT*dG*dA*dA*d[5mC]*kT*kA*kT; antisense) [Compound 958567]”, the “YAP1 (% UTC)” value falls from 6 % UTC to 3 % UTC.

First: 958572 (kA*kT*kT*dA*dT*dA*dG*dG*d[5mC]*dA*d[5mC]*dT*d[5mC]*k[5mC]*kT*kT; antisense) [Compound 958572]
Second: 958577 (kT*k[5mC]*kT*dG*dT*dG*dG*d[5mC]*dT*dA*d[5mC]*dT*dG*kG*k[5mC]*kA; antisense) [Compound 958577]
The “YAP1 (% UTC)” value of the first is higher: 5 % UTC for the first, 4 % UTC for the second.

Compared with “958582 (kA*kA*kT*d[5mC]*dT*dG*d[5mC]*dT*dG*dA*dT*dA*dT*kA*kT*kA; antisense) [Compound 958582]”, “958587 (kG*kG*kT*dG*dA*d[5mC]*dT*dG*dA*dA*dA*d[5mC]*dT*k[5mC]*kT*kA; antisense) [Compound 958587]” is lower in “YAP1 (% UTC)” value: 21 % UTC for the first, 2 % UTC for the second.

Going from “958592 (k[5mC]*kG*kT*dA*dA*dG*dA*dT*d[5mC]*dA*dA*dA*dG*k[5mC]*kA*k[5mC]; antisense) [Compound 958592]” to “958597 (k[5mC]*k[5mC]*k[5mC]*dA*dA*dT*dA*d[5mC]*dA*dA*d[5mC]*d[5mC]*dA*kA*kG*kA; antisense) [Compound 958597]”, the “YAP1 (% UTC)” value falls from 12 % UTC to 6 % UTC.

First: 958602 (kT*kG*k[5mC]*d[5mC]*dA*dT*dG*dT*dT*d[5mC]*d[5mC]*dA*dT*kA*kT*kA; antisense) [Compound 958602]
Second: 958607 (antisense k[5mC]*kA*kA*d[5mC]*dA*dT*dG*d[5mC]*dT*dT*dG*d[5mC]*dG*kA*kG*kG) [Compound 958607]
The “YAP1 (% UTC)” value of the first is higher: 16 % UTC for the first, 11 % UTC for the second.

same assay, conditions: Table 11; A-431 cells, 5,000 cells per well, free uptake, 2,000 nM oligonucleotide, approx. 48 hours; primer probe set RTS36584; Yap1 mRNA normalized to RIBOGREEN, percent of untreated control

First: 958563 (kA*kG*k[5mC]*dT*dT*dT*dT*dG*d[5mC]*d[5mC]*dA*dG*dG*kA*kG*kA; antisense) [Compound 958563]
Second: 958568 (kT*kA*kT*dG*dA*dG*dT*dG*dA*dT*d[5mC]*dA*dA*k[5mC]*k[5mC]*kT; antisense) [Compound 958568]
The “YAP1 (% UTC)” value of the first is lower: 3 % UTC for the first, 5 % UTC for the second.

Going from “958573 (kG*kG*k[5mC]*dA*dA*dA*dT*dT*dA*dT*dA*dG*dG*k[5mC]*kA*k[5mC]; antisense) [Compound 958573]” to “958578 (k[5mC]*kT*kT*dA*dA*dT*d[5mC]*dT*dG*dT*dG*dG*d[5mC]*kT*kA*k[5mC]; antisense) [Compound 958578]”, the “YAP1 (% UTC)” value rises from 2 % UTC to 4 % UTC.

First: 958583 (kA*kG*k[5mC]*dT*dA*dA*dT*d[5mC]*dT*dG*d[5mC]*dT*dG*kA*kT*kA; antisense) [Compound 958583]
Second: 958588 (kG*kT*kG*dT*dA*d[5mC]*dT*dT*dA*dG*dG*dT*dG*kA*k[5mC]*kT; antisense) [Compound 958588]
The “YAP1 (% UTC)” value of the first is higher: 89 % UTC for the first, 10 % UTC for the second.

First: 958593 (kG*kG*kT*d[5mC]*dA*dG*dT*dA*d[5mC]*dA*dG*dA*dG*kG*kG*k[5mC]; antisense) [Compound 958593]
Second: 958598 (k[5mC]*k[5mC]*k[5mC]*dA*dA*dT*dG*d[5mC]*dT*dA*d[5mC]*d[5mC]*d[5mC]*kA*kA*kT; antisense) [Compound 958598]
The “YAP1 (% UTC)” value of the first is higher: 7 % UTC for the first, 4 % UTC for the second.

“958603 (kT*kG*kG*dT*dA*dT*dG*dA*dA*dT*dT*d[5mC]*dT*kG*kA*kA; antisense) [Compound 958603]” was tested, and the “YAP1 (% UTC)” value was 3 % UTC.

same assay, conditions: Table 12; A-431 cells, 5,000 cells per well, free uptake, 2,000 nM modified oligonucleotide, approx. 48 hours; RTS36584; normalized to RIBOGREEN; Yap1 mRNA relative to untreated control cells

First: 958564 (kT*k[5mC]*k[5mC]*dA*dA*dA*dT*dT*dG*dA*dA*dG*dG*kG*k[5mC]*k[5mC]; antisense) [Compound 958564]
Second: 958569 (kA*kG*k[5mC]*d[5mC]*dT*dT*dA*dG*dA*dG*dT*d[5mC]*dA*kA*kT*kT; antisense) [Compound 958569]
The “YAP1 (% UTC)” value of the first is higher: 62 % UTC for the first, 3 % UTC for the second.

Going from “958574 (k[5mC]*kT*kG*dG*d[5mC]*dA*dA*dA*dT*dT*dA*dT*dA*kG*kG*k[5mC]; antisense) [Compound 958574]” to “958579 (kA*kT*k[5mC]*dT*dT*dA*dA*dT*d[5mC]*dT*dG*dT*dG*kG*k[5mC]*kT; antisense) [Compound 958579]”, the “YAP1 (% UTC)” value falls from 13 % UTC to 4 % UTC.

Going from “958584 (k[5mC]*k[5mC]*k[5mC]*dT*dA*dA*dG*d[5mC]*dT*dA*dA*dA*dG*k[5mC]*kT*kA; antisense) [Compound 958584]” to “958589 (kG*kT*kA*dA*dA*dG*dG*dA*dA*dG*dA*dT*d[5mC]*kT*k[5mC]*k[5mC]; antisense) [Compound 958589]”, the “YAP1 (% UTC)” value falls from 74 % UTC to 4 % UTC.

First: 958594 (k[5mC]*kT*k[5mC]*dT*dT*dA*dG*dG*dT*d[5mC]*dT*d[5mC]*d[5mC]*kT*kT*k[5mC]; antisense) [Compound 958594]
Second: 958599 (kT*kT*k[5mC]*dA*dA*dG*dA*dA*dT*dA*d[5mC]*d[5mC]*d[5mC]*kA*kG*kT; antisense) [Compound 958599]
The “YAP1 (% UTC)” value of the first is higher: 8 % UTC for the first, 5 % UTC for the second.

For “958604 (kA*k[5mC]*kG*d[5mC]*dT*dA*dG*dA*dA*dA*dA*dG*dT*kG*kT*kT; antisense) [Compound 958604]”, the “YAP1 (% UTC)” value was 94 % UTC.

same assay, conditions: Table 13; A-431 cells, 5,000 cells per well, free uptake, 2,000 nM modified oligonucleotide, approx. 48 hours; RTS36584; normalized to RIBOGREEN; Yap1 mRNA relative to untreated control cells

Going from “958560 (kG*kG*kT*dG*d[5mC]*d[5mC]*dA*d[5mC]*dT*dT*dT*dA*dA*kT*kT*k[5mC]; antisense) [Compound 958560]” to “958565 (kT*kT*kG*dA*dG*d[5mC]*dA*d[5mC]*dT*dG*dA*dA*dA*kG*kT*kA; antisense) [Compound 958565]”, the “YAP1 (% UTC)” value falls from 22 % UTC to 4 % UTC.

First: 958570 (kT*kG*kT*dA*dA*dT*dT*d[5mC]*dA*dT*dA*dT*dA*k[5mC]*k[5mC]*k[5mC]; antisense) [Compound 958570]
Second: 958575 (kG*kG*k[5mC]*dT*dA*d[5mC]*dT*dG*dG*d[5mC]*dA*dA*dA*kT*kT*kA; antisense) [Compound 958575]
The “YAP1 (% UTC)” value of the first is lower: 5 % UTC for the first, 9 % UTC for the second.

Compared with “958580 (kA*kT*kA*dA*dT*d[5mC]*dT*dT*dA*dA*dT*d[5mC]*dT*kG*kT*kG; antisense) [Compound 958580]”, “958585 (k[5mC]*kT*k[5mC]*dT*dA*dT*d[5mC]*dA*dA*dG*dG*dT*d[5mC]*k[5mC]*k[5mC]*k[5mC]; antisense) [Compound 958585]” is higher in “YAP1 (% UTC)” value: 4 % UTC for the first, 5 % UTC for the second.

“958595 (k[5mC]*k[5mC]*kA*d[5mC]*dA*dT*d[5mC]*dA*dA*dG*dG*d[5mC]*dT*kA*kT*kG; antisense) [Compound 958595]” and “958600 (kG*kT*kA*dG*dA*dT*d[5mC]*dT*dA*dA*dG*dA*dA*kG*k[5mC]*k[5mC]; antisense) [Compound 958600]” are the same in “YAP1 (% UTC)” value: 8 % UTC for the first, 8 % UTC for the second.

“958605 (antisense k[5mC]*kT*k[5mC]*dA*dG*dA*dT*dG*dT*dA*d[5mC]*d[5mC]*dA*kA*k[5mC]*kG) [Compound 958605]” was tested, and the “YAP1 (% UTC)” value was 7 % UTC.
